Experimental data from PubChem BioAssay (NCI).
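These data come from cells grown in 96-well plates and exposed to compound for 48 hours at five concentrations. At the GI50, growth is halved. The concentration for full growth arrest is given as TGI.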

Assays:
Assay in all cases: NCI-60 cell line screen, 48 h
[1] = test system: OVCAR-8 ovarian
[2] = test system: DU-145 prostate
[3] = test system: HL-60(TB) leukemia
[4] = test system: SNB-19 CNS
[5] = test system: M14 melanoma
[6] = test system: TK-10 renal
[7] = test system: MALME-3M melanoma
[8] = test system: SK-MEL-5 melanoma
[9] = test system: OVCAR-5 ovarian
[10] = test system: CAKI-1 renal
[11] = test system: OVCAR-4 ovarian
[12] = test system: SNB-75 CNS
[13] = test system: A498 renal
[14] = test system: LOX IMVI melanoma
[15] = test system: COLO 205 colon
[16] = test system: SF-268 CNS
[17] = test system: NCI/ADR-RES ovarian
[18] = test system: K-562 leukemia
[19] = test system: SF-539 CNS
[20] = test system: MCF7 breast
[21] = test system: NCI-H23 lung
[22] = test system: HT29 colon
[23] = test system: HOP-62 NSCLC
[24] = test system: HCT-116 colon
[25] = test system: SF-295 CNS
[26] = test system: IGROV1 ovarian
[27] = test system: MDA-MB-231 breast
[28] = test system: NCI-H226 lung
[29] = test system: U251 CNS
[30] = test system: SW-620 colon
[31] = test system: NCI-H460 lung
[32] = test system: HCT-15 colon
[33] = test system: RXF 393 renal
[34] = test system: NCI-H522 lung
[35] = test system: BT-549 breast
[36] = test system: MDA-MB-435
[37] = test system: HS 578T breast
[38] = test system: CCRF-CEM leukemia
[39] = test system: ACHN renal
[40] = test system: SK-MEL-2 melanoma
[41] = test system: 786-0 renal
[42] = test system: EKVX NSCLC
[43] = test system: SK-OV-3 ovarian
[44] = test system: SN12C renal
[45] = test system: T-47D breast
[46] = test system: A549 NSCLC
[47] = test system: OVCAR-3 ovarian
[48] = test system: UACC-62 melanoma
[49] = test system: MOLT-4 leukemia
[50] = test system: UACC-257 melanoma
[51] = test system: HOP-92 NSCLC
[52] = test system: HCC-2998 colon
[53] = test system: PC-3 prostate
[54] = test system: SK-MEL-28 melanoma
[55] = test system: KM12 colon
[56] = test system: UO-31 renal

Which results are given for `COc1ccncc1C#Cc1cncc(C(=O)Nc2ccc(CN3CCN(C)CC3)c(C(F)(F)F)c2)c1`?
GI50 [1]: 27.1 µM; TGI [1]: > 100 µM; GI50 [2]: 25.7 µM; TGI [2]: > 100 µM; GI50 [3]: 7.4 µM; TGI [3]: 46.7 µM; GI50 [4]: 47 µM; TGI [4]: > 100 µM; GI50 [5]: 10.1 µM; TGI [5]: 39.6 µM; GI50 [6]: 47.1 µM; TGI [6]: > 100 µM; GI50 [7]: 4.3 µM; TGI [7]: 23.3 µM; GI50 [8]: 39 µM; TGI [8]: > 100 µM; GI50 [9]: 23 µM; TGI [9]: > 100 µM; GI50 [10]: 22.6 µM; TGI [10]: > 100 µM; GI50 [11]: 6.07 µM; TGI [11]: > 100 µM; GI50 [12]: 25.9 µM; TGI [12]: > 100 µM; GI50 [13]: 17.4 µM; TGI [13]: 79.5 µM; GI50 [14]: 5.79 µM; TGI [14]: 25.7 µM; GI50 [15]: 11.2 µM; TGI [15]: 64 µM; GI50 [16]: 17.5 µM; TGI [16]: 66.2 µM; GI50 [17]: 33.4 µM; TGI [17]: > 100 µM; GI50 [18]: 22.9 nM; TGI [18]: > 100 µM; GI50 [19]: 5.39 µM; TGI [19]: 66.6 µM; GI50 [20]: 11.1 µM; TGI [20]: 94.6 µM; GI50 [21]: 16.3 µM; TGI [21]: > 100 µM; GI50 [22]: 9.33 µM; TGI [22]: > 100 µM; GI50 [23]: 20.9 µM; TGI [23]: > 100 µM; GI50 [24]: 6.72 µM; TGI [24]: > 100 µM; GI50 [25]: 37.3 µM; TGI [25]: > 100 µM; GI50 [26]: 8.57 µM; TGI [26]: 84.2 µM; GI50 [27]: 7.71 µM; TGI [27]: 85.4 µM; GI50 [28]: 4.6 µM; TGI [28]: > 100 µM; GI50 [29]: 35.6 µM; TGI [29]: > 100 µM; GI50 [30]: 14.6 µM; TGI [30]: 64.3 µM; GI50 [31]: 16.1 µM; TGI [31]: 71 µM; GI50 [32]: 19.8 µM; TGI [32]: > 100 µM; GI50 [33]: 15.7 µM; TGI [33]: 49.5 µM; GI50 [34]: 11.4 µM; TGI [34]: 46 µM; GI50 [35]: 21.1 µM; TGI [35]: > 100 µM; GI50 [36]: 15 µM; TGI [36]: > 100 µM; GI50 [37]: 7.75 µM; TGI [37]: 52.5 µM; GI50 [38]: 28.4 µM; TGI [38]: > 100 µM; GI50 [39]: 19.3 µM; TGI [39]: > 100 µM; GI50 [40]: 13.3 µM; TGI [40]: 48.3 µM; GI50 [41]: 35.8 µM; TGI [41]: > 100 µM; GI50 [42]: 24.7 µM; TGI [42]: > 100 µM; GI50 [43]: 28.9 µM; TGI [43]: > 100 µM; GI50 [44]: 16.8 µM; TGI [44]: > 100 µM; GI50 [45]: 89.1 µM; TGI [45]: > 100 µM; GI50 [46]: 27.4 µM; TGI [46]: > 100 µM; GI50 [47]: 21.6 µM; TGI [47]: 89.7 µM; GI50 [48]: 13.6 µM; TGI [48]: > 100 µM; GI50 [49]: 14.5 µM; TGI [49]: > 100 µM; GI50 [50]: 21.5 µM; TGI [50]: > 100 µM; GI50 [51]: 4.83 µM; TGI [51]: 57.2 µM; GI50 [52]: 24.8 µM; TGI [52]: > 100 µM; GI50 [53]: 27.3 µM; TGI [53]: > 100 µM; GI50 [54]: 13.3 µM; TGI [54]: > 100 µM; GI50 [55]: 326 nM; TGI [55]: 64.5 µM; GI50 [56]: 15.4 µM; TGI [56]: > 100 µM
